Results reported in patent US5187174A, “6'-deoxy-6'-halo-neplanocin A and its production” (Asahi Kasei Kogyo Kabushiki Kaisha, priority 1989, dated 1993).
Converted amounts (≈) assume the structure as drawn.

Tests used:
[1] = test system: L5178Y cells; assay: Growth inhibition activity against L5178Y cells; type: cell-based; details: Mus musculus, 48 hours, 37° C.
Protocol: 1. Growth inhibition activity against L5178Y cells:
A solution of each test compound is prepared by dissolving or suspending the compound in RRMI 1640 medium containing 10% bovine serum by ultrasonication. A cell suspension of L5178Y cells, 1.1×10^4 cells/ml, each suspension having a volume of 1.8 ml, is added to each test tube. A solution (0.2 ml) of the test compound hereinabove is added thereto and the medium is tightly sealed and incubated at 37° C. for 48 hours. After incubation, the number of cells is measured using a Coulter counter and the growth ratio of the cells is determined.

[2] = Resistance to adenosine deaminase; type: in vitro ADME, calf; details: bovine, pH 7.2, 25° C., read-out: Remaining Amount (%); for remaining at 0.5 h, 500 µM: 30 min.
Protocol: A solution 0.5 mM of each test sample is prepared by dissolving the test sample in 0.05M Tris-HCl buffer (pH 7.2). Adenosine deaminase (calf intestine, 400 U/ml glycerin, Boehringer 102091) is diluted ten times with 0.05M Tris-HCl buffer (pH 7.2) to prepare an adenosine deaminase solution.
0.5 ml of each sample solution is mixed with 10 μl of adenosine deaminase solution. The mixtures are allowed to stand in a water bath at 25° C., and 4 μl samples thereof are pipetted off after 1, 10, 20 and 30 minutes. The remaining sample is measured by HPLC under the following conditions:
Column: Licrosorb RP-18-5
Elution solvent: Control; 15% methanol
Elution speed: 1.0 ml/min.

[3] = test system: cells; details: in words; Ref. 1; cited from earlier work
[4] = test system: adenosine deaminase; details: in words; thought to occur, Ref. 1; cited from earlier work

| remaining at 10 min, 500 µM [2] [%] | remaining at 20 min, 500 µM [2] [%] | remaining at 0.5 h, 500 µM [2] [%] | SMILES | IC50 [1] [µg/mL] | cytotoxic activity in vitro [3] | conversion by adenosine deaminase in vivo [4] |
| --- | --- | --- | --- | --- | --- | --- |
| 98 | 97 | 97 | Nc1ncnc2c1ncn2C1C=C(CBr)C(O)C1O (stereo not shown) [Compound (1) X = Br, 6'-deoxy-6'-bromoneplanocin A] | 0.2 (≈ 0.613 µM) | – | – |
| 101 | 99 | 102 | Nc1ncnc2c1ncn2C1C=C(CCl)C(O)C1O (stereo not shown) [Compound (1) X = Cl, 6'-deoxy-6'-chloroneplanocin A] | 0.3 (≈ 1.06 µM) | – | – |
| 99 | 98 | 98 | Nc1ncnc2c1ncn2C1C=C(CF)C(O)C1O (stereo not shown) [Compound (1) X = F, 6'-deoxy-6'-fluoroneplanocin A] | 1.1 (≈ 4.15 µM) | – | – |
| 97 | 96 | 96 | Nc1ncnc2c1ncn2C1C=C(CI)C(O)C1O (stereo not shown) [Compound (1) X = I, 6'-deoxy-6'-iodoneplanocin A] | 0.4 (≈ 1.07 µM) | – | – |
| 6 | 0.4 | 0 | Nc1ncnc2c1ncn2[C@@H]1C=C(CO)[C@@H](O)[C@H]1O [Neplanocin A] | 0.2 (≈ 0.76 µM) | has cytotoxic activity in vitro | rapid conversion to an inert deamination-type compound (neplanocin D) |
